Measured values taken from US9884832B2 (priority 2011, dated 2018).

These molecules were tested against AM2 S31 (wild-type serine at position 31 in the M2 protein), influenza virus A/Udorn/72 (Influenza A virus, UniProt P0DOF5) (assay: cell-based). Details: 100 uM; Xenopus oocytes; activity range class; read-out: S31 OOcyte Inhibition at 100 uM (%).
AM2 S31 (wild-type serine at position 31 in the M2 protein), influenza virus A/Udorn/72, sequence (P0DOF5 whole entry, looked up): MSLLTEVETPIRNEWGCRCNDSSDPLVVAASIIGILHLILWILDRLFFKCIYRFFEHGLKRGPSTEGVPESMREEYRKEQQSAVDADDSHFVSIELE
For Cc1nc(CNC23CC4CC(CC(C4)C2)C3)no1 [Example 96a, N-((5-methyl-1,2,4-oxadiazol-3-yl)methyl)adamantan-1-amine], the inhibition at 100 µM was 31 to 95%.
Oc1ccc(CNC23CC4CC(CC(O)(C4)C2)C3)c(O)c1 [Example 196a, 4-[(3-Hydroxy-adamantan-1-ylamino)-methyl]-benzene-1,3-diol] gave an inhibition at 100 µM of 0 to 30%.
c1scc2[nH]c(CNC34CC5CC(CC(C5)C3)C4)nc12 [Example 171a, Adamantan-1-yl-(1H-thieno[3,4-d]imidazol-2-ylmethyl)-amine] gave an inhibition at 100 µM of 0 to 30%.
With COc1ccccc1COc1ccc(CNC23CC4CC(CC(C4)C2)C3)cc1 [Example 15a, Adamantan-1-yl-[4-(2-methoxy-benzyloxy)-benzyl]-amine] the inhibition at 100 µM was 0 to 30%.
Work on c1cc(-c2ccc(CNC34CC5CC(CC(C5)C3)C4)s2)co1 [Example 137a, N-((5-(Furan-3-yl)thiophen-2-yl)methyl)adamantan-1-amine] yielded an inhibition at 100 µM of 0 to 30%.
Work on c1ccc(Oc2ccc(CNC34CC5CC(CC(C5)C3)C4)cc2)cc1 [Example 13a, Adamantan-1-yl-(4-phenoxy-benzyl)-amine] yielded an inhibition at 100 µM of 31 to 95%.
In the case of CC(C)(C)c1cc(CNC23CC4CC(CC(C4)C2)C3)[nH]n1 [Example 101a, N-((3-(tert-butyl)-1H-pyrazol-5-yl)methyl)adamantan-1-amine], the inhibition at 100 µM is reported as 0 to 30%.
FC(F)(F)c1ccc(CNC23CC4CC(CC(C4)C2)C3)cc1 [Example 5a, Adamantan-1-yl-(4-trifluoromethyl-benzyl)-amine] showed an inhibition at 100 µM of 0 to 30%.
In the case of CCOc1ccc(CNC23CC4CC(CC(C4)C2)C3)cc1 [Example 1a, Adamantan-1-yl-(4-ethoxy-benzyl)-amine], the inhibition at 100 µM is reported as 0 to 30%.
Work on c1coc(-c2ccc(CNC34CC5CC(CC(C5)C3)C4)cc2)c1 [Example 31a, N-(4-(Furan-2-yl)benzyl)adamantan-1-amine] yielded an inhibition at 100 µM of 0 to 30%.
c1csc(CNC23CC4CC(CC(C4)C2)C3)c1 [Example 70a, Adamantan-1-yl-thiophen-2-ylmethyl-amine] was tested, and the inhibition at 100 µM was 31 to 95%.
For Clc1ccc2[nH]c(CNC34CC5CC(CC(C5)C3)C4)nc2c1 [Example 181a, Adamantan-1-yl-(5-chloro-1H-benzoimidazol-2-ylmethyl)-amine], the inhibition at 100 µM was 0 to 30%.
With CCSc1ccc(CNC23CC4CC(CC(C4)C2)C3)cc1 [Example 12a, N-(4-(ethylthio)benzyl)adamantan-1-amine] the inhibition at 100 µM was 0 to 30%.
Clc1ccc(CNC23CC4CC(CC(C4)C2)C3)s1 [Example 79a, N-((5-chlorothiophen-2-yl)methyl)adamantan-1-amine] showed an inhibition at 100 µM of 31 to 95%.
Work on COc1ccc(-c2cc(CNC34CC5CC(CC(C5)C3)C4)no2)cc1 [Example 110a, N-((5-(4-methoxyphenyl)isoxazol-3-yl)methyl)adamantan-1-amine] yielded an inhibition at 100 µM of 0 to 30%.
Fc1ccc(-c2cc(CNC34CC5CC(CC(C5)C3)C4)no2)cc1 [Example 118a, N-((5-(4-fluorophenyl)isoxazol-3-yl)methyl)adamantan-1-amine] showed an inhibition at 100 µM of 0 to 30%.
With CC(NC12CC3CC(CC(C3)C1)C2)c1ccc(I)s1 (stereo not drawn) [Example 82a, N-(1-(5-iodothiophen-2-yl)ethyl)adamantan-1-amine] the inhibition at 100 µM was 31 to 95%.
c1cc(C2CC2)ccc1CNC12CC3CC(CC(C3)C1)C2 [Example 9a, N-(4-Cyclopropylbenzyl)adamantan-1-amine] gave an inhibition at 100 µM of 31 to 95%.
O=c1[nH]cc(CNC23CC4CC(CC(C4)C2)C3)c(=O)[nH]1 [Example 169a, 5-((adamantan-1-ylamino)methyl)pyrimidine-2,4(1H,3H)-dione] showed an inhibition at 100 µM of 0 to 30%.
c1cc(CNC23CC4CC(CC(C4)C2)C3)cc(-c2cccs2)c1 [Example 34a, N-(3-(thiophen-2-yl)benzyl)adamantan-1-amine] gave an inhibition at 100 µM of 0 to 30%.
c1coc(-c2cc(CNC34CC5CC(CC(C5)C3)C4)no2)c1 [Example 153a, N-((5-(furan-2-yl)isoxazol-3-yl)methyl)adamantan-1-amine] was tested, and the inhibition at 100 µM was 0 to 30%.
Brc1cccc(CNC23CC4CC(CC(C4)C2)C3)c1 [Example 3a, N-(3-Bromobenzyl)adamantan-1-amine] showed an inhibition at 100 µM of 31 to 95%.
CC(C)c1nc(CNC23CC4CC(CC(C4)C2)C3)no1 [Example 102a, N-((5-isopropyl-1,2,4-oxadiazol-3-yl)methyl)adamantan-1-amine] was tested, and the inhibition at 100 µM was 0 to 30%.
c1ccc2cc(COc3ccc(CNC45CC6CC(CC(C6)C4)C5)cc3)ccc2c1 [Example 38a, N-(4-(naphthalen-2-ylmethoxy)benzyl)adamantan-1-amine] showed an inhibition at 100 µM of 0 to 30%.
Molecule O=[N+]([O-])c1ccc(CNC23CC4CC(CC(C4)C2)C3)s1 [Example 100a, N-((5-nitrothiophen-2-yl)methyl)adamantan-1-amine] has an inhibition at 100 µM of 31 to 95%.
With Clc1ccc(-c2cc(CNC34CC5CC(CC(C5)C3)C4)no2)cc1 [Example 119a, N-((5-(4-chlorophenyl)isoxazol-3-yl)methyl)adamantan-1-amine] the inhibition at 100 µM was 0 to 30%.

Same assay, conditions: Table 1; 100 uM; Xenopus oocytes, pH 5.5, -20 mV; read-out: S31 OOcyte Inhibition at 100 uM (%)
For Oc1c(F)cc(CNC23CC4CC(CC(C4)C2)C3)cc1Cl [Example 68, 4-(Adamantan-1-ylaminomethyl)-2-chloro-6-fluoro-phenol], the inhibition at 100 µM was 31 to 95%.
Molecule COc1ccc(F)c(CNC23CC4CC(CC(C4)C2)C3)c1 [Example 63, Adamantan-1-yl-(2-fluoro-5-methoxy-benzyl)-amine] has an inhibition at 100 µM of 31 to 95%.
With Oc1ccc(CN2CCC3(CCCCC3)CC2)c(O)c1 [Example 115, 4-(3-Aza-spiro[5.5]undec-3-ylmethyl)-benzene-1,3-diol] the inhibition at 100 µM was 31 to 95%.
c1cc2cc(CNC34CC5CC(CC(C5)C3)C4)sc2s1 [Example 79, Adamantan-1-yl-thieno[2,3-b]thiophen-2-ylmethyl-amine] was tested, and the inhibition at 100 µM was 31 to 95%.
FC(F)(F)Sc1ccc(CNC23CC4CC(CC(C4)C2)C3)cc1 [Example 26, Adamantan-1-yl-(4-trifluoromethylsulfanyl-benzyl)-amine] showed an inhibition at 100 µM of 0 to 30%.
In the case of COc1ccc(CNC23CC4CC(CC(C4)C2)C3)cc1 [Example 16, Adamantan-1-yl-(4-methoxy-benzyl)-amine], the inhibition at 100 µM is reported as 31 to 95%.
For CCOc1ccc(CNC23CC4CC(CC(C4)C2)C3)cc1 [Example 20, Adamantan-1-yl-(4-ethoxy-benzyl)-amine], the inhibition at 100 µM was 0 to 30%.
For COc1cc(CNC23CC4CC(CC(C4)C2)C3)ccc1O [Example 50, 4-(Adamantan-1-ylaminomethyl)-2-methoxy-phenol], the inhibition at 100 µM was 31 to 95%.
Molecule CN(CCC#N)c1ccc(CNC23CC4CC(CC(C4)C2)C3)cc1 [Example 38, 3-((4-((Adamantan-1-ylamino)methyl)phenyl)(methyl)amino)propanenitrile] has an inhibition at 100 µM of 0 to 30%.
In the case of c1nc(-c2ccc(CNC34CC5CC(CC(C5)C3)C4)cc2)no1 [Example 40, Adamantan-1-yl-(4-[1,2,4]oxadiazol-3-yl-benzyl)-amine], the inhibition at 100 µM is reported as 0 to 30%.
In the case of c1cc2cc(CNC34CC5CC(CC(C5)C3)C4)sc2o1 [Example 83, Adamantan-1-yl-thieno[2,3-b]furan-5-ylmethyl-amine], the inhibition at 100 µM is reported as 31 to 95%.
For Fc1ccc(CNC23CC4CC(CC(C4)C2)C3)c(F)c1 [Example 54, Adamantan-1-yl-(2,4-difluoro-benzyl)-amine], the inhibition at 100 µM was 31 to 95%.
In the case of c1cc2sc(CNC34CC5CC(CC(C5)C3)C4)cc2s1 [Example 81, Adamantan-1-yl-thieno[3,2-b]thiophen-2-ylmethyl-amine], the inhibition at 100 µM is reported as 31 to 95%.
With c1c(CNC2C3CC4CC(C3)CC2C4)nc2n1CCS2 (stereo not drawn) [Example 105, Adamantan-2-yl-(2,3-dihydro-imidazo[2,1-b]thiazol-6-ylmethyl)-amine] the inhibition at 100 µM was 31 to 95%.

Same assay, conditions: Table 3; 100 uM; Xenopus oocytes, pH 5.5, -20 mV; read-out: S31 OOcyte Inhibition at 100 uM (%)
Molecule Clc1ccc(CNC23CC4CC(CC(C4)C2)C3)cc1 [Example 1b, N-(4-Chlorobenzyl)adamantan-1-amine] has an inhibition at 100 µM of 31 to 95%.
In the case of COc1ncc(CNC23CC4CC(CC(C4)C2)C3)cn1 [Example 55b, N-((2-methoxypyrimidin-5-yl)methyl)adamantan-1-amine], the inhibition at 100 µM is reported as 0 to 30%.
COc1cccc(-c2cc(CNC34CC5CC(CC(C5)C3)C4)no2)c1 [Example 39b, N-((5-(3-methoxyphenyl)isoxazol-3-yl)methyl)adamantan-1-amine] showed an inhibition at 100 µM of 0 to 30%.
With COc1ccccc1-c1nc(CNC23CC4CC(CC(C4)C2)C3)no1 [Example 15b, N-((5-(2-methoxyphenyl)-1,2,4-oxadiazol-3-yl)methyl)adamantan-1-amine] the inhibition at 100 µM was 0 to 30%.
Molecule CSc1ccc(-c2cc(CNC34CC5CC(CC(C5)C3)C4)no2)cc1 [Example 37b, N-((5-(4-(methylthio)phenyl)isoxazol-3-yl)methyl)adamantan-1-amine] has an inhibition at 100 µM of 0 to 30%.
In the case of FC(F)(F)c1nnc(CNC23CC4CC(CC(C4)C2)C3)o1 [Example 14b, N-((5-(trifluoromethyl)-1,3,4-oxadiazol-2-yl)methyl)adamantan-1-amine], the inhibition at 100 µM is reported as 0 to 30%.
Molecule Cc1csc(CNC23CC4CC(CC(C4)C2)C3)n1 [Example 68b, Adamantan-1-yl-(4-methyl-thiazol-2-ylmethyl)-amine] has an inhibition at 100 µM of 31 to 95%.
Clc1ccc(CNC23CC4CC(CC(C4)C2)C3)nn1 [Example 70b, Adamantan-1-yl-(6-chloro-pyridazin-3-ylmethyl)-amine] was tested, and the inhibition at 100 µM was 31 to 95%.
Work on Cc1cccc(-c2ncc(CNC34CC5CC(CC(C5)C3)C4)cn2)c1 [Example 63b, N-((2-mtolylpyrimidin-5-yl)methyl)adamantan-1-amine] yielded an inhibition at 100 µM of 0 to 30%.
With Fc1cccc(F)c1-c1cc(CNC23CC4CC(CC(C4)C2)C3)no1 [Example 38b, N-((5-(2,6-difluorophenyl)isoxazol-3-yl)methyl)adamantan-1-amine] the inhibition at 100 µM was 0 to 30%.
For OC12CC3CC(C1)CC(NCc1noc(C4CCCCC4)n1)(C3)C2 [Example 86b, (1s,3r,5R,7S)-3-(((5-cyclohexyl-1,2,4-oxadiazol-3-yl)methyl)amino)adamantan-1-ol], the inhibition at 100 µM was 0 to 30%.
